Test results as given in US8071768B2, “Alkylquinoline and alkylquinazoline kinase modulators” (Janssen Pharmaceutica, N.V., priority 2005, dated 2011).

Molecular target: T1, TrkB (Homo sapiens, UniProt Q16620)
T1 construct: purchased Upstate 14-507M
Assay: Trk B Fluorescence Polarization Kinase Assay
Assay type: biochemical
Conditions: uncertainty ±10%
Procedure: Trk B Fluorescence Polarization Kinase Assay (TrkB IC50 Data)
The compounds of the present invention are also specific inhibitors of TrkB. Selection of preferred compounds of Formula I for use as TrkB inhibitors was performed in the following manner. The TrkB assay utilized the fluorescein-labeled phosphopeptide and the anti-phosphotyrosine antibody included in the Panvera Phospho-Tyrosine Kinase Kit (Green) supplied by Invitrogen. When TrkB phosphorylated poly Glu4Tyr, the fluorescein-labeled phosphopeptide was displaced from the anti-phosphotyrosine antibody by the phosphorylated poly Glu4Tyr, thus decreasing the FP value. The TrkB kinase reaction was incubated at room temperature for 30 minutes under the following conditions: 50 nM TrkB (Upstate, catalog # 14-507M), 20 ug/mL poly Glu4Tyr, 150 uM ATP, 5 mM MgCl2, 1% compound in DMSO. The kinase reaction was stopped with the addition of EDTA. The fluorescein-labeled phosphopeptide and the anti-phosphotyrosine antibody were added and incubated for 30 minutes at room temperature. Data points were an average of triplicate samples. Inhibition and IC50 data analysis were done with GraphPad Prism using a non-linear regression fit with a multiparamater, sigmoidal dose-response (variable slope) equation.

T1 sequence (Q16620 32-822): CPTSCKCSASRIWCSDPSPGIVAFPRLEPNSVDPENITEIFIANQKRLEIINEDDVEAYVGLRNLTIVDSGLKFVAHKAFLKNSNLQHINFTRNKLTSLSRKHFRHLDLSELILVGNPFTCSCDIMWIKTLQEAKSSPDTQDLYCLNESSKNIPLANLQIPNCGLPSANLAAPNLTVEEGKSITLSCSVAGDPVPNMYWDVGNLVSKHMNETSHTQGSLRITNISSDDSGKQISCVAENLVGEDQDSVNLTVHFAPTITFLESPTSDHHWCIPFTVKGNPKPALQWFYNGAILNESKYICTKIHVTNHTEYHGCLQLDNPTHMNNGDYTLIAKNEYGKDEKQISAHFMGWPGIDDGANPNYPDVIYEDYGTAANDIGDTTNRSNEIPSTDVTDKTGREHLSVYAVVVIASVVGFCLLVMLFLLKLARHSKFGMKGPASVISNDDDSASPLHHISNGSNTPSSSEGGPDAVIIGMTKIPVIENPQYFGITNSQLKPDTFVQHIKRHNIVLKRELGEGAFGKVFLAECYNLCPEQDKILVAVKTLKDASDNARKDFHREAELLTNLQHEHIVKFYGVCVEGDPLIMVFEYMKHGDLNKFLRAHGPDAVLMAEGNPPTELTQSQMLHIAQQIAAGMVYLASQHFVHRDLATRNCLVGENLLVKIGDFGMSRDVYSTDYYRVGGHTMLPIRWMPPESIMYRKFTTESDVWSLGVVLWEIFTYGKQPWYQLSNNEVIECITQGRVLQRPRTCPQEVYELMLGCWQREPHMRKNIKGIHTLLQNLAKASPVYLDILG

Row | Compound | IC50
1 | CN(C)C(=O)N1CCN(c2ccc3c(C4CCN(C(=O)Nc5ccc(N6CCOCC6)cc5)CC4)ncnc3c2)CC1 [Compound 143, 4-{4-[1-(4-Morpholin-4-yl-phenylcarbamoyl)-piperidin-4-yl]-quinazolin-7-yl}-piperazine-1-carboxylic acid dimethylamide] | 7.6 µM
2 | COc1cc2ncnc(C3CCN(C(=O)Nc4ccc(C5CCN(C(=O)OC(C)(C)C)CC5)cc4)CC3)c2cc1OC [Compound 63, 4-(4-{[4-(6,7-Dimethoxy-quinazolin-4-yl)-piperidine-1-carbonyl]-amino}-phenyl)-piperidine-1-carboxylic acid tert-butyl ester] | > 42 µM
3 | COc1cc2ncnc(C3CCN(C(=O)Nc4ccc(N5CCCC5=O)cc4)CC3)c2cc1OC [Compound 57, 4-(6,7-Dimethoxy-quinazolin-4-yl)-piperidine-1-carboxylic acid [4-(2-oxo-pyrrolidin-1-yl)-phenyl]-amide] | 24.9 µM
4 | CN1CCC(COc2ccc3c(C4CCN(C(=O)Nc5ccc(N6CCCC6)nc5)CC4)ncnc3c2)CC1 [Compound 99, 4-[7-(1-Methyl-piperidin-4-ylmethoxy)-quinazolin-4-yl]-piperidine-1-carboxylic acid (6-pyrrolidin-1-yl-pyridin-3-yl)-amide] | 6.41 µM
5 | CC(=O)N1CCC(COc2ccc3c(C4CCN(C(=O)Nc5ccc(N6CCCC6)cc5)CC4)ncnc3c2)CC1 [Compound 163, 4-[7-(1-Acetyl-piperidin-4-ylmethoxy)-quinazolin-4-yl]-piperidine-1-carboxylic acid (4-pyrrolidin-1-yl-phenyl)-amide] | 4.12 µM
6 | CN(C)c1c(NCCCOc2ccc3c(C4CCN(C(=O)Nc5ccc(N6CCCC6)nc5)CC4)ncnc3c2)c(=O)c1=O [Compound 111, 4-{7-[3-(2-Dimethylamino-3,4-dioxo-cyclobut-1-enylamino)-propoxy]-quinazolin-4-yl}-piperidine-1-carboxylic acid (6-pyrrolidin-1-yl-pyridin-3-yl)-amide] | > 20 µM
7 | O=C(Nc1ccc(N2CCOCC2)cc1)N1CCC(c2ncnc3cc(N4CCOCC4)ccc23)CC1 [Compound 145, 4-(7-Morpholin-4-yl-quinazolin-4-yl)-piperidine-1-carboxylic acid (4-morpholin-4-yl-phenyl)-amide] | 21.1 µM
8 | O=C(Nc1ccc(N2CCOCC2)cc1)N1CCC(c2ncnc3cc(OCCC4CCCCN4)ccc23)CC1 (stereo not drawn) [Compound 98, 4-[7-(2-Piperidin-2-yl-ethoxy)-quinazolin-4-yl]-piperidine-1-carboxylic acid (4-morpholin-4-yl-phenyl)-amide] | > 20 µM
9 | COc1cc2ncnc(C3CCN(C(=O)Nc4ccc(-c5cncnc5)cc4)CC3)c2cc1OC [Compound 58, 4-(6,7-Dimethoxy-quinazolin-4-yl)-piperidine-1-carboxylic acid (4-pyrimidin-5-yl-phenyl)-amide] | > 42 µM
10 | CS(=O)(=O)N1CCN(c2ccc3c(C4CCN(C(=O)Nc5ccc(N6CCOCC6)cc5)CC4)ncnc3c2)CC1 [Compound 142, 4-[7-(4-Methanesulfonyl-piperazin-1-yl)-quinazolin-4-yl]-piperidine-1-carboxylic acid (4-morpholin-4-yl-phenyl)-amide] | 17.4 µM
11 | O=C(Nc1ccc(N2CCOCC2)cc1)N1CCC(c2ncnc3cc(OCCCO)ccc23)CC1 [Compound 77, 4-[7-(3-Hydroxy-propoxy)-quinazolin-4-yl]-piperidine-1-carboxylic acid (4-morpholin-4-yl-phenyl)-amide] | > 20 µM
12 | O=C(Nc1ccc(N2CCCC2)cc1)N1CCC(c2ncnc3cc(OCCN4CCC[C@H]4CO)ccc23)CC1 [Compound 152, (S)-4-{7-[2-(2-Hydroxymethyl-pyrrolidin-1-yl)-ethoxy]-quinazolin-4-yl}-piperidine-1-carboxylic acid (4-pyrrolidin-1-yl-phenyl)-amide] | 32.7 µM
13 | COc1cc2ncnc(C3CCN(C(=O)Nc4ccc(NC(C)=O)cc4)CC3)c2cc1OC [Compound 25, 4-(6,7-Dimethoxy-quinazolin-4-yl)-piperidine-1-carboxylic acid (4-acetylamino-phenyl)-amide] | > 42 µM
14 | O=C(Nc1ccc(N2CCCC2)cc1)N1CCC(c2ncnc3cc(OCCCN4CCC[C@H]4CO)ccc23)CC1 [Compound 161, (S)-4-{7-[3-(2-Hydroxymethyl-pyrrolidin-1-yl)-propoxy]-quinazolin-4-yl}-piperidine-1-carboxylic acid (4-pyrrolidin-1-yl-phenyl)-amide] | 6.48 µM

The next molecules have a lower IC50 than those just listed; values first:

Row | IC50 | Compound
15 | 2.73 µM | O=C(Nc1ccc(N2CCCC2)cc1)N1CCC(c2ncnc3cc(OCCN4CCOC4=O)ccc23)CC1 [Compound 147, 4-{7-[2-(2-Oxo-oxazolidin-3-yl)-ethoxy]-quinazolin-4-yl}-piperidine-1-carboxylic acid (4-pyrrolidin-1-yl-phenyl)-amide]
16 | 1.5 µM | CCN(CC)CCOc1ccc2c(C3CCN(C(=O)Nc4ccc(OC(C)C)cc4)CC3)ncnc2c1 [Compound 35, 4-[7-(2-Diethylamino-ethoxy)-quinazolin-4-yl)-piperidine-1-carboxylic acid (4-isopropoxy-phenyl)-amide]
17 | 1.3 µM | O=C(Nc1ccc(N2CCCC2)nc1)N1CCC(c2ncnc3cc(OCCN4CCOC4=O)ccc23)CC1 [Compound 92, 4-{7-[2-(2-Oxo-oxazolidin-3-yl)-ethoxy]-quinazolin-4-yl}-piperidine-1-carboxylic acid (6-pyrrolidin-1-yl-pyridin-3-yl)-amide]
18 | 1.1 µM | COc1cc2ncnc(C3CCN(C(=O)Nc4ccc(C(C)(C)C)cc4)CC3)c2cc1OC [Compound 53, 4-(6,7-Dimethoxy-quinazolin-4-yl)-piperidine-1-carboxylic acid (4-tert-butyl-phenyl)-amide]
19 | 0.8 µM | CCCCc1ccc(NC(=O)N2CCC(c3ncnc4cc(OC)c(OC)cc34)CC2)cc1 [Compound 43, 4-(6,7-Dimethoxy-quinazolin-4-yl)-piperidine-1-carboxylic acid (4-butyl-phenyl)-amide]
20 | 0.6 µM | CC(C)Oc1ccc(NC(=O)N2CCC(c3ncnc4cc(OCCCN5CCCC5=O)ccc34)CC2)cc1 [Compound 67, 4-{7-[3-(2-Oxo-pyrrolidin-1-yl)-propoxy]-quinazolin-4-yl}-piperidine-1-carboxylic acid (4-isopropoxy-phenyl)-amide]
21 | 0.5 µM | CC(C)Oc1ccc(NC(=O)N2CCC(c3ncnc4ccc(C#CCO)cc34)CC2)cc1 [Compound 12, 4-[6-(3-Hydroxy-prop-1-ynyl)-quinazolin-4-yl]-piperidine-1-carboxylic acid (4-isopropoxy-phenyl)-amide]
22 | 0.4 µM | COc1cc2ncnc(C3CCN(C(=O)Nc4ccc(OC(C)C)nc4)CC3)c2cc1OC [Compound 56, 4-(6,7-Dimethoxy-quinazolin-4-yl)-piperidine-1-carboxylic acid (6-isopropoxy-pyridin-3-yl)-amide]
23 | 0.2 µM | CC(C)Oc1ccc(NC(=O)N2CCC(c3ncnc4cc(NCCCN5CCN(C)CC5)ccc34)CC2)cc1 [Compound 102, 4-{7-[3-(4-Methyl-piperazin-1-yl)-propylamino]-quinazolin-4-yl}-piperidine-1-carboxylic acid (4-isopropoxy-phenyl)-amide]
24 | 0.13 µM | CC(C)Oc1ccc(NC(=O)N2CCC(c3ncnc4cc(OCCCOS(C)(=O)=O)ccc34)CC2)cc1 [Compound 121, Methanesulfonic acid 3-{4-[1-(4-isopropoxy-phenylcarbamoyl)-piperidin-4-yl]-quinazolin-7-yloxy}-propyl ester]
